US10077261B2, “Imidazolin-5-one derivative useful as FASN inhibitors for the treatment of cancer” (Janssen Pharmaceutica NV, priority 2012, dated 2018)

What was measured:
A2780 ovarian cells [1] = assay: A2780 ovarian cell proliferation assay in lipid reduced medium, with palmitate (MTT); format: cell-based; settings: Homo sapiens, A2780, 96 h; read-out: pIC50 A2780 Ovarian Cell, With Palmitate (converted)
Method: (§1) The biological assays described below correspond to comparative assays for ovarian cell proliferation. […] Compounds active in the absence of palmitate would not be expected to be active in the control.
(§2) 2500 cells were seeded in a 96-well clear well plate in 200 μL RPMI1640 with 10% Fetal Calf Serum (Hyclone), and incubated at 37° C., 5% CO2. Blanks were wells without cells. The next day the culture medium was aspirated and replaced by 160 μL culture medium with 10% Lipid-Reduced Serum (LRS, Hyclone). 20 μL test compound (at concentrations of 30 μM, 10 μM, 3 μM, 1 μM, 0.30 μM, 0.10 μM, 0.03 μM and 0.01 μM)/DMSO dilution followed by 20 μL palmitate-BSA solution were added to a final concentrations of 0.2% DMSO, 25 μM palmitate (Sigma, P0500, 10 mM stock solution in ethanol) 0.2% fatty-acid-free BSA, 0.25% ethanol. After 96 h incubation, an MTT assay was performed. The absorbance was measured at 544 nm on a SPECTRAMAX brand microplate reader (Molecular Devices).
A best fit curve was fitted by a minimum sum of squares method, plotting Controlmin versus test compound concentration.
(§3) Representative compounds of the present invention were tested according to the procedure as described in Biological Example 3 above, with results as listed in Table 8, below.

[2] = target: T1, hFASN enzyme (full length) (Homo sapiens, UniProt P49327); assay: Fatty Acid Synthase (FASN) inhibition scintillation proximity assay; format: biochemical; settings: for inhibition at 10 µM: read-out: Human FASN % inhibition @ 10 μM, 10 μM test compound; for IC50: read-out: Human FASN pIC50 (converted)
T1 construct: 10 μL hFASN enzyme (full length, 300 ng, purified in house); made in house
T1 sequence (P49327 whole entry): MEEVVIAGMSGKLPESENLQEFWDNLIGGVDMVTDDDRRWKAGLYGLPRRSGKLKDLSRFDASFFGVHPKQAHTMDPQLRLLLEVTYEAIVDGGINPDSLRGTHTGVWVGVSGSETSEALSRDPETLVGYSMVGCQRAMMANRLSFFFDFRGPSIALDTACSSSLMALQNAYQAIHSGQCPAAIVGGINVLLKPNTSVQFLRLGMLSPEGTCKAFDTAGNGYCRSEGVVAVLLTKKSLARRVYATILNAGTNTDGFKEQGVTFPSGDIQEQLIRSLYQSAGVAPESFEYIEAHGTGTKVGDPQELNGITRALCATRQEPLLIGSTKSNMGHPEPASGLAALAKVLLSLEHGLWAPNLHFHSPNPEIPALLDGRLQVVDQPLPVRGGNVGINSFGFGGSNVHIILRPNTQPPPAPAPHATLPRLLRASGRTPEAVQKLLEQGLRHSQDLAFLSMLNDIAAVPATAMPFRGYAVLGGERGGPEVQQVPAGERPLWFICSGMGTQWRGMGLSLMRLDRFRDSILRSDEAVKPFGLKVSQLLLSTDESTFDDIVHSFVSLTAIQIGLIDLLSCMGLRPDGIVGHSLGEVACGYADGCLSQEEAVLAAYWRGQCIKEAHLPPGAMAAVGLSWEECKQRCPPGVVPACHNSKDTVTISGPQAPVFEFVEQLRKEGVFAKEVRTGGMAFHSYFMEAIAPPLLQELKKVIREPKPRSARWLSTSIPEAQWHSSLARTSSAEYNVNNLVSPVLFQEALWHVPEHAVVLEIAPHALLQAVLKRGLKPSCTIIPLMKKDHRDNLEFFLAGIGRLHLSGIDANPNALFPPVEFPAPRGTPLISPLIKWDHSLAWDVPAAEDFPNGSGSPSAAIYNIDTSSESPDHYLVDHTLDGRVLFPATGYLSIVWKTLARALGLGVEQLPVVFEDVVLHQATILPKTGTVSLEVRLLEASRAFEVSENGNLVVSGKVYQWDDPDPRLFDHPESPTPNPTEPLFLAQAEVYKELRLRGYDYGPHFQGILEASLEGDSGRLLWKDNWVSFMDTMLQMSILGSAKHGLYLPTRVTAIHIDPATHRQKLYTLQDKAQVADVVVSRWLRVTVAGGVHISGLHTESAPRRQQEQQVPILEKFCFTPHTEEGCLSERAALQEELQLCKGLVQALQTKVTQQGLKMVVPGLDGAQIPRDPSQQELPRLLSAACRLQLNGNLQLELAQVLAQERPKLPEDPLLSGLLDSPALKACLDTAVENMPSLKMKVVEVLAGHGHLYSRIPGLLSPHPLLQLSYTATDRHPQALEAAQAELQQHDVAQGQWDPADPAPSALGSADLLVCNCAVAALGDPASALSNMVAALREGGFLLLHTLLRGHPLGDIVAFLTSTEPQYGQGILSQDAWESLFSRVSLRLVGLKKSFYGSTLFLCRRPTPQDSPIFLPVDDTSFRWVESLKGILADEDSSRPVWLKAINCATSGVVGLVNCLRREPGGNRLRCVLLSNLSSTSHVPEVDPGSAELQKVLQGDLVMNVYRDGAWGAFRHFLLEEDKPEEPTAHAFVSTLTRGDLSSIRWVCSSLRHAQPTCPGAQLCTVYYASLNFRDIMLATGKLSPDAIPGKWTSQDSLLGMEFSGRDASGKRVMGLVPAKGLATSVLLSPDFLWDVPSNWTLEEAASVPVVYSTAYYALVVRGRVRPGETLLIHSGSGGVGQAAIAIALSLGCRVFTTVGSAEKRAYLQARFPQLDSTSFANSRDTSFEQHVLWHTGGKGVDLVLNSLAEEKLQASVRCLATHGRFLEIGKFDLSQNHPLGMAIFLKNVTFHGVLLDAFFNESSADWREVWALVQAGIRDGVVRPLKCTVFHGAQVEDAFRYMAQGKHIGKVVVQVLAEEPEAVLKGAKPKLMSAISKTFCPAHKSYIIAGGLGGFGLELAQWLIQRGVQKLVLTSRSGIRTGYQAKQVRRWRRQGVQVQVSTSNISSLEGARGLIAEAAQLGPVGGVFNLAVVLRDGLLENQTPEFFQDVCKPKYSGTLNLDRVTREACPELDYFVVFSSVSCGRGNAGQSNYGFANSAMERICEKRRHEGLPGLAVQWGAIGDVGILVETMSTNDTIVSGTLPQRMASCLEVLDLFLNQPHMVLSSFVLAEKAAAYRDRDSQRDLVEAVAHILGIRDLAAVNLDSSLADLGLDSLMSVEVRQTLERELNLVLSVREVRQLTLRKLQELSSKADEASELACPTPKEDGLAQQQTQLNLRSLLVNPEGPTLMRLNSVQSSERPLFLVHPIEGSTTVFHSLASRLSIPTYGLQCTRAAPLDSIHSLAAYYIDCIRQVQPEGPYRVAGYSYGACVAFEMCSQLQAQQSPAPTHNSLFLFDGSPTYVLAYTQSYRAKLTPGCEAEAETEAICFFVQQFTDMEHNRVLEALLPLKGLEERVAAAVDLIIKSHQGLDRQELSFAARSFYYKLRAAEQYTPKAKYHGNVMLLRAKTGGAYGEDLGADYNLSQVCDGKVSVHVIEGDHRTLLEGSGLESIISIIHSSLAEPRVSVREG
Procedure, shortened: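 Read-out relies on hydrophobic ³H-palmitate product, formed from ³H-acetyl-CoA and malonyl-CoA, binding streptavidin imaging beads, measured at 610±20 nm after at least 24 h. Full-length enzyme (300 ng) in phosphate buffer pH 7.5 with DTT; eight compound concentrations, 0.01–30 μM.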

A2780 ovarian cells [3] = assay: A2780 ovarian cell proliferation assay in lipid reduced medium, without palmitate (MTT); format: cell-based; settings: Homo sapiens, A2780, 96 h; read-out: pIC50 A2780 Ovarian Cell, Without Palmitate (converted)
Method: as §1
as §2, with “ethanol-BSA” for “palmitate-BSA”, “DMSO,” for “DMSO, 25 μM palmitate (Sigma, P0500, 10 mM stock solution in ethanol)”, “incubation” for “incubation,”
where mLC and mHC were the means of the low control wells and high control wells on the plate, after manual exclusion of outliers. A plot of Controlmin versus test compound concentration was fitted to a 4-parameter logistic curve using a non-linear least squares regression method.
as §3

Row | SMILES | IC50 (A2780 ovarian cells [1]) [µM] | inhibition at 10 µM [2] [%] | IC50 [2] [µM] | IC50 (A2780 ovarian cells [3]) [µM]
1 | COC(=O)N1CC2(C1)N=C(c1ccc(-c3ccc4occc4c3)cc1)N(C[C@@H]1CCN(C(=O)c3nccs3)C1)C2=O [compound 957, (R)-methyl 6-(4-(benzofuran-5-yl)phenyl)-8-oxo-7-((1-(thiazole-2-carbonyl)pyrrolidin-3-yl)methyl)-2,5,7-triazaspiro[3.4]oct-5-ene-2-carboxylate] | > 10 | 13 | > 10 | > 10
2 | Cn1cc(-c2ccc(-c3ccc(C4=NC5(CCOC5)C(=O)N4CC4CCN(S(C)(=O)=O)C4)cc3)cc2)cn1 (centres unmarked) [compound 939, 2-(4′-(1-methyl-1H-pyrazol-4-yl)-[1,1′-biphenyl]-4-yl)-3-((1-(methylsulfonyl)pyrrolidin-3-yl)methyl)-7-oxa-1,3-diazaspiro[4.4]non-1-en-4-one] | > 10 | 2 | > 10 | > 10
3 | Cn1ncc2cc(-c3ccc(C4=NC5(CCOC5)C(=O)N4CC4CN(C(=O)C(F)(F)F)C4)cc3)ccc21 (centres unmarked) [compound 937, 2-(4-(1-methyl-1H-indazol-5-yl)phenyl)-3-((1-(2,2,2-trifluoroacetyl)azetidin-3-yl)methyl)-7-oxa-1,3-diazaspiro[4.4]non-1-en-4-one] | > 10 | -9 | > 10 | > 10
4 | Cn1cc(-c2ccc(-c3ccc(C4=NC5(CCOC5)C(=O)N4CC4CCN(C(=O)c5nccs5)C4)cc3)cc2)cn1 (centres unmarked) [compound 943, 2-(4′-(1-methyl-1H-pyrazol-4-yl)-[1,1′-biphenyl]-4-yl)-3-((1-(thiazole-2-carbonyl)pyrrolidin-3-yl)methyl)-7-oxa-1,3-diazaspiro[4.4]non-1-en-4-one] | > 10 | 9 | > 10 | > 10
5 | Cn1ncc2cc(-c3ccc(C4=NC5(CC5)C(=O)N4CC4CN(C(=O)C5(O)CC5)C4)c(F)c3)ccc21 [compound 572, 5-[2-Fluoro-4-(1-methyl-1H-indazol-5-yl)phenyl]-6-({1-[(1-hydroxycyclopropyl)carbonyl]azetidin-3-yl}methyl)-4,6-diazaspiro[2.4]hept-4-en-7-one] | > 10 | 87 | 0.135 | 0.0525
6 | COC(=O)N1CC(CN2C(=O)C3(CCOCC3)N=C2c2ccc(-c3ccc4cccnc4c3)cc2)C1 [compound 922, methyl 3-((4-oxo-2-(4-(quinolin-7-yl)phenyl)-8-oxa-1,3-diazaspiro[4.5]dec-1-en-3-yl)methyl)azetidine-1-carboxylate] | > 10 | 38 | > 10 | > 10
7 | CN(C)c1ccc(-c2ccc(C3=NC4(CC4)C(=O)N3C[C@@H]3CCN(C(=O)C4CC4)C3)cc2)cc1 [compound 124, 6-{[(3R)-1-(Cyclopropylcarbonyl)pyrrolidin-3-yl]methyl}-5-[4′-(dimethylamino)biphenyl-4-yl]-4,6-diazaspiro[2.4]hept-4-en-7-one] | > 10 | 113 |  | ~0.288
8 | O=C(C1CC1)N1CC(CN2C(=O)C3(CC3)N=C2c2ccc(-c3ccc4nncn4c3)cc2)C1 [compound 539, 6-{[1-(Cyclopropylcarbonyl)azetidin-3-yl]methyl}-5-(4-[1,2,4]triazolo[4,3-a]pyridin-6-ylphenyl)-4,6-diazaspiro[2.4]hept-4-en-7-one] | > 10 | 54 | ~6.31 | > 10
9 | O=C(C1CC1)N1CC(CN2C(=O)C3(CC3)N=C2c2ccc(-c3cc(C(F)(F)F)ccc3F)cc2F)C1 [compound 630, 6-{[1-(Cyclopropylcarbonyl)azetidin-3-yl]methyl}-5-[2′,3-difluoro-5′-(trifluoromethyl)biphenyl-4-yl]-4,6-diazaspiro[2.4]hept-4-en-7-one] | > 10 | 67 | 3.16 | 4.07
10 | N#CCCn1ncc2cc(-c3ccc(C4=NC5(CC5)C(=O)N4CC4CN(C(=O)C5CC5)C4)cc3)ccc21 [compound 533, 3-{5-[4-(6-{[1-(Cyclopropylcarbonyl)azetidin-3-yl]methyl}-7-oxo-4,6-diazaspiro[2.4]hept-4-en-5-yl)phenyl]-1H-indazol-1-yl}propanenitrile] | > 10 | 54 | 7.59 | > 10
11 | O=C(C1CC1)N1CC(CN2C(=O)C3(CC3)N=C2c2ccc(-c3cc4ccccc4nc3O)cc2)C1 [compound 532, 6-{[1-(Cyclopropylcarbonyl)azetidin-3-yl]methyl}-5-[4-(2-hydroxyquinolin-3-yl)phenyl]-4,6-diazaspiro[2.4]hept-4-en-7-one] | > 10 | 58 | 5.37 | > 10
12 | CC(C)C(=O)N1CCC2(CC1)N=C(c1ccc(-c3ccc4cnccc4c3)cc1)N(CC1CN(C(=O)C3CC3)C1)C2=O [compound 137, 3-{[1-(Cyclopropylcarbonyl)azetidin-3-yl]methyl}-2-(4-isoquinolin-6-ylphenyl)-8-(2-methylpropanoyl)-1,3,8-triazaspiro[4.5]dec-1-en-4-one] | ~6.03 | 112 | 0.178 | ~0.851

The remaining lines, values ahead:

Row | IC50 (A2780 ovarian cells [1]) [µM] | inhibition at 10 µM [2] [%] | IC50 [2] [µM] | IC50 (A2780 ovarian cells [3]) [µM] | SMILES
13 | > 10 | 25 | > 10 | > 10 | Cc1cc(-c2cccc(S(=O)(=O)C(C)C)c2)ccc1C1=NC2(CC2)C(=O)N1CC1CN(C(=O)C2CC2)C1 [compound 776, 6-((1-(cyclopropanecarbonyl)azetidin-3-yl)methyl)-5-(3′-(isopropylsulfonyl)-3-methyl-[1,1′-biphenyl]-4-yl)-4,6-diazaspiro[2.4]hept-4-en-7-one]
14 | > 10 | 70 | 2.75 | ~2.4 | CC(C)S(=O)(=O)c1cccc(-c2ccc(C3=NC4(CC4)C(=O)N3C[C@@H]3CCN(C(=O)C4CC4)C3)c(F)c2)c1 [compound 632, 6-{[(3R)-1-(Cyclopropylcarbonyl)pyrrolidin-3-yl]methyl}-5-{3-fluoro-3′-[(1-methylethyl)sulfonyl]biphenyl-4-yl}-4,6-diazaspiro[2.4]hept-4-en-7-one]
15 | > 10 | 88 | 1.17 | 2.45 | Cc1cc(-c2cccc(S(=O)(=O)C3CC3)c2)ccc1C1=NC2(CC2)C(=O)N1C[C@@H]1CCN(C(=O)C2CC2)C1 [compound 646, 6-{[(3R)-1-(Cyclopropylcarbonyl)pyrrolidin-3-yl]methyl}-5-[3′-(cyclopropylsulfonyl)-3-methylbiphenyl-4-yl]-4,6-diazaspiro[2.4]hept-4-en-7-one]
16 | > 10 | 77 | 3.09 | 2.75 | O=C(C1CC1)N1CC(CN2C(=O)C3(CC3)N=C2c2ccc(-c3cccc(S(=O)(=O)C4CC4)c3)cc2F)C1 [compound 651, 6-{[1-(Cyclopropylcarbonyl)azetidin-3-yl]methyl}-5-[3′-(cyclopropylsulfonyl)-3-fluorobiphenyl-4-yl]-4,6-diazaspiro[2.4]hept-4-en-7-one]
17 | > 10 | 64 | 5.37 | 8.32 | Cc1cc(-c2cccc(S(=O)(=O)C3CC3)c2)ccc1C1=NC2(CC2)C(=O)N1CC1CN(C(=O)C2CC2)C1 [compound 640, 6-{[1-(Cyclopropylcarbonyl)azetidin-3-yl]methyl}-5-[3′-(cyclopropylsulfonyl)-3-methylbiphenyl-4-yl]-4,6-diazaspiro[2.4]hept-4-en-7-one]
18 | > 10 | 68 | 3.02 | 2 | CS(=O)(=O)c1cccc(-c2ccc(C3=NC4(CC4)C(=O)N3C[C@@H]3CCN(C(=O)C4CC4)C3)c(F)c2)c1 [compound 634, 6-{[(3R)-1-(Cyclopropylcarbonyl)pyrrolidin-3-yl]methyl}-5-[3-fluoro-3′-(methylsulfonyl)biphenyl-4-yl]-4,6-diazaspiro[2.4]hept-4-en-7-one]
